Residue numbers refer to the chain shown, from its start.

One molecule from patent publication US20180008587A1, “THIOHYDANTOIN ANDROGEN RECEPTOR ANTAGONISTS FOR THE TREATMENT OF CANCER” (Jaressen Pharmaceutica NV, priority 2016, published 2018) can be followed below.

The target of assay [1] is T1, AR H874Y (Homo sapiens, UniProt P10275, H875Y).
T1 construct: expressed in transfected cells; host or cells: HepG2
T1 sequence (P10275 1-920 H875Y): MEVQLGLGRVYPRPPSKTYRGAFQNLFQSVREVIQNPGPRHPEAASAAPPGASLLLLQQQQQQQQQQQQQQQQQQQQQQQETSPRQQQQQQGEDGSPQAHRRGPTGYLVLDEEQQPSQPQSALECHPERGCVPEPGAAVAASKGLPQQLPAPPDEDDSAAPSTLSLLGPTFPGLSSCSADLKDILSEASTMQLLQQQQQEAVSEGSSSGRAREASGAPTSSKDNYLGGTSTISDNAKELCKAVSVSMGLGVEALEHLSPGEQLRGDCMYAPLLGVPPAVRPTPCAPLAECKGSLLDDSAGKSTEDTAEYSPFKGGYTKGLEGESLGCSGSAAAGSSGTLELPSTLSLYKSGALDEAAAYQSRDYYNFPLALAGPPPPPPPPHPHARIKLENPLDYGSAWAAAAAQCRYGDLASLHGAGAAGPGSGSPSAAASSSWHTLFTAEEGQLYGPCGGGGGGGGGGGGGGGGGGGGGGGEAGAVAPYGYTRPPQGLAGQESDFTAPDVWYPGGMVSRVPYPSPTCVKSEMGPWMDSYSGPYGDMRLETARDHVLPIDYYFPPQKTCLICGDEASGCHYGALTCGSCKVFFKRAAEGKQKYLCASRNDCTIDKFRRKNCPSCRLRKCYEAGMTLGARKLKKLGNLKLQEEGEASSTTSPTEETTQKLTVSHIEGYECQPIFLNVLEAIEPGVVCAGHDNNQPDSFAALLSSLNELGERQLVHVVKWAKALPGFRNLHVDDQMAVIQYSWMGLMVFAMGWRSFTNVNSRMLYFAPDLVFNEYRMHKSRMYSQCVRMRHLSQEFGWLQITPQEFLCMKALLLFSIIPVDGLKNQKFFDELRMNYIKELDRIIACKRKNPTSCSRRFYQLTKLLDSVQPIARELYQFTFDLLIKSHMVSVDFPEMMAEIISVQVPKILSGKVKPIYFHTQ
As to the kind of experiment: Luciferase transcriptional reporter assay, mutant AR, HepG2, antagonist mode. It counts as cell-based. The settings on record: HepG2, 90 pM R1881, 48 hours; * denotes incomplete inhibition (otherwise 100%); read-out: Antagonism; IC50, AR construct H874Y. As to the method:
(§1) HepG2 cells were maintained in EMEM supplemented with 10% FBS. One day before transfection, the media was changed to EMEM with 10% CSS. T-150 flasks were transiently transfected using 120 μL Lipofectamine 2000 (Life Technologies), 30 μg mutant cDNA (expression vector)—mutant cDNA tested were L701H, T877A, W741C and H874Y—and 40 μg 4×ARE-Luciferase (reporter vector) in OptiMEM and the flasks were incubated overnight. Cells were then trypsinized, counted and resuspended at 500,000 cells/mL. For agonist mode, the compounds of Formula (I) are serially diluted and 50 μL of the compound added per well. 50 μL of the cells are added to each well and incubated for 48 hours. For antagonist mode, a final concentration of 90 pM R1881 was added to the diluted compounds and incubated for 48 hours. The plates were then assayed using SteadyGlo and read on the Envision. Percent Stimulation and Inhibition is determined and analyzed using GraphPad Prism.
(§2) All values are calculated relative to the activity of R1881 induced androgen receptor activity (n≧3).
(In general: Reporter assays use an easily measured gene product as a stand-in for the process of interest.)

In assay [2] the target is T2, AR W741C (Homo sapiens, UniProt P10275, W742C).
T2 construct: expressed in transfected cells; host or cells: HepG2
T2 sequence (P10275 1-920 W742C): T1 sequence (P10275 1-920 H875Y) with W742C, Y875H
The assay is described as above. It counts as cell-based. As to conditions: HepG2, 90 pM R1881, 48 hours; * denotes incomplete inhibition (otherwise 100%); read-out: Antagonism; IC50, AR construct W741C. How it is done:
as §1, §2

Take `N#Cc1ncc(N2C(=O)C3(CCC3)N(c3ccc(OC4CCNCC4)cc3)C2=S)cc1C(F)(F)F` [Cpd 35, 5-[5-oxo-8-[4-(4-piperidyloxy)phenyl]-7-thioxo-6,8-diazaspiro[3.4]octan-6-yl]-3-(trifluoromethyl)pyridine-2-carbonitrile]: the IC50 is 1.95 µM in assay [1] and 5.79 µM in assay [2].
